# Reference: ChEMBL document CHEMBL4507275, “Data for DCP probe BI-2545” (2021)
# Tests used:
# [1] = tested on: Tyrosine-protein kinase ABL1 (Homo sapiens), P00519 [F317L]; conditions: Compound concentration 1000.0 nM
# [2] = tested on: Tyrosine-protein kinase ABL1 (Homo sapiens), P00519 [Q252H]; conditions: Compound concentration 1000.0 nM
# [3] = target: Bone morphogenetic protein receptor type-1A (Homo sapiens) (UniProt P36894); conditions: Compound concentration 1000.0 nM
# [4] = target: Serine/threonine-protein kinase B-raf (Homo sapiens) (UniProt P15056); conditions: Compound concentration 1000.0 nM
# [5] = target: Protein-tyrosine kinase 6 (Homo sapiens) (UniProt Q13882); conditions: Compound concentration 1000.0 nM
# [6] = target: Cyclin-dependent kinase 19 (Homo sapiens) (UniProt Q9BWU1); conditions: Compound concentration 1000.0 nM
# [7] = target: Dual specificity protein kinase CLK3 (Homo sapiens) (UniProt P49761); conditions: Compound concentration 1000.0 nM
# [8] = target: Casein kinase I isoform epsilon (Homo sapiens) (UniProt P49674); conditions: Compound concentration 1000.0 nM
# [9] = target: Casein kinase I isoform gamma-2 (Homo sapiens) (UniProt P78368); conditions: Compound concentration 1000.0 nM
# [10] = target: Casein kinase I isoform gamma-3 (Homo sapiens) (UniProt Q9Y6M4); conditions: Compound concentration 1000.0 nM
# [11] = target: Casein kinase II subunit alpha' (Homo sapiens) (UniProt P19784); conditions: Compound concentration 1000.0 nM
# [12] = target: Epithelial discoidin domain-containing receptor 1 (Homo sapiens) (UniProt Q08345); conditions: Compound concentration 1000.0 nM
# [13] = target: Myotonin-protein kinase (Homo sapiens) (UniProt Q09013); conditions: Compound concentration 1000.0 nM
# [14] = target: Serine/threonine-protein kinase 17A (Homo sapiens) (UniProt Q9UEE5); conditions: Compound concentration 1000.0 nM
# [15] = tested on: Epidermal growth factor receptor (Homo sapiens), P00533 [L858R,T790M]; conditions: Compound concentration 1000.0 nM
# [16] = target: Ephrin type-A receptor 1 (Homo sapiens) (UniProt P21709); conditions: Compound concentration 1000.0 nM
# [17] = target: Ephrin type-A receptor 2 (Homo sapiens) (UniProt P29317); conditions: Compound concentration 1000.0 nM
# [18] = tested on: Fibroblast growth factor receptor 3 (Homo sapiens), P22607 [G697C]; conditions: Compound concentration 1000.0 nM
# [19] = tested on: Receptor-type tyrosine-protein kinase FLT3 (Homo sapiens), P36888 [D835Y]; conditions: Compound concentration 1000.0 nM
# [20] = target: Receptor-type tyrosine-protein kinase FLT3 (Homo sapiens) (UniProt P36888); conditions: Compound concentration 1000.0 nM
# [21] = target: Interleukin-1 receptor-associated kinase 4 (Homo sapiens) (UniProt Q9NWZ3); conditions: Compound concentration 1000.0 nM
# [22] = tested on: Mast/stem cell growth factor receptor Kit (Homo sapiens), P10721 [D816H]; conditions: Compound concentration 1000.0 nM
# [23] = target: Mitogen-activated protein kinase kinase kinase 4 (Homo sapiens) (UniProt Q9Y6R4); conditions: Compound concentration 1000.0 nM
# [24] = target: MAP kinase-activated protein kinase 2 (Homo sapiens) (UniProt P49137); conditions: Compound concentration 1000.0 nM
# [25] = target: Serine/threonine-protein kinase MARK2 (Homo sapiens) (UniProt Q7KZI7); conditions: Compound concentration 1000.0 nM
# [26] = target: Serine/threonine-protein kinase 4 (Homo sapiens) (UniProt Q13043); conditions: Compound concentration 1000.0 nM
# [27] = target: Myosin light chain kinase family member 4 (Homo sapiens) (UniProt Q86YV6); conditions: Compound concentration 1000.0 nM
# [28] = target: Serine/threonine-protein kinase Nek11 (Homo sapiens) (UniProt Q8NG66); conditions: Compound concentration 1000.0 nM
# [29] = target: Mitogen-activated protein kinase 11 (Homo sapiens) (UniProt Q15759); conditions: Compound concentration 1000.0 nM
# [30] = target: Cyclin-dependent kinase 14 (Homo sapiens) (UniProt O94921); conditions: Compound concentration 1000.0 nM
# [31] = target: Membrane-associated tyrosine- and threonine-specific cdc2-inhibitory kinase (Homo sapiens) (UniProt Q99640); conditions: Compound concentration 1000.0 nM
# [32] = target: Protein kinase C theta type (Homo sapiens) (UniProt Q04759); conditions: Compound concentration 1000.0 nM
# [33] = tested on: Proto-oncogene tyrosine-protein kinase receptor Ret (Homo sapiens), P07949 [M918T]; conditions: Compound concentration 1000.0 nM
# [34] = tested on: Proto-oncogene tyrosine-protein kinase receptor Ret (Homo sapiens), P07949 [V804L]; conditions: Compound concentration 1000.0 nM
# [35] = target: Rho-associated protein kinase 1 (Homo sapiens) (UniProt Q13464); conditions: Compound concentration 1000.0 nM
# [36] = target: Serine/threonine-protein kinase SIK2 (Homo sapiens) (UniProt Q9H0K1); conditions: Compound concentration 1000.0 nM
# [37] = target: Proto-oncogene tyrosine-protein kinase Src (Homo sapiens) (UniProt P12931); conditions: Compound concentration 1000.0 nM
# [38] = target: TRAF2 and NCK-interacting protein kinase (Homo sapiens) (UniProt Q9UKE5); conditions: Compound concentration 1000.0 nM
# [39] = target: Non-receptor tyrosine-protein kinase TNK1 (Homo sapiens) (UniProt Q13470); conditions: Compound concentration 1000.0 nM
# [40] = target: BDNF/NT-3 growth factors receptor (Homo sapiens) (UniProt Q16620); conditions: Compound concentration 1000.0 nM
# [41] = target: Wee1-like protein kinase (Homo sapiens) (UniProt P30291); conditions: Compound concentration 1000.0 nM
# [42] = target: Histamine H1 receptor (Homo sapiens) (UniProt P35367); conditions: Compound concentration 10.0 uM
# [43] = target: GABA-A receptor; anion channel (Rattus norvegicus) (UniProt O09028+P15431+P18506+P18508+P19969+P20236+P23574+P23576+P28471+P28473+P30191+P62813+P63079+P63138+Q91ZM7+Q9ES14); conditions: Compound concentration 10.0 uM
# [44] = organism: Rattus norvegicus; conditions: Compound concentration 10.0 uM
# Mitogen-activated protein kinase kinase kinase 4 (Homo sapiens), sequence (Q9Y6R4 whole entry): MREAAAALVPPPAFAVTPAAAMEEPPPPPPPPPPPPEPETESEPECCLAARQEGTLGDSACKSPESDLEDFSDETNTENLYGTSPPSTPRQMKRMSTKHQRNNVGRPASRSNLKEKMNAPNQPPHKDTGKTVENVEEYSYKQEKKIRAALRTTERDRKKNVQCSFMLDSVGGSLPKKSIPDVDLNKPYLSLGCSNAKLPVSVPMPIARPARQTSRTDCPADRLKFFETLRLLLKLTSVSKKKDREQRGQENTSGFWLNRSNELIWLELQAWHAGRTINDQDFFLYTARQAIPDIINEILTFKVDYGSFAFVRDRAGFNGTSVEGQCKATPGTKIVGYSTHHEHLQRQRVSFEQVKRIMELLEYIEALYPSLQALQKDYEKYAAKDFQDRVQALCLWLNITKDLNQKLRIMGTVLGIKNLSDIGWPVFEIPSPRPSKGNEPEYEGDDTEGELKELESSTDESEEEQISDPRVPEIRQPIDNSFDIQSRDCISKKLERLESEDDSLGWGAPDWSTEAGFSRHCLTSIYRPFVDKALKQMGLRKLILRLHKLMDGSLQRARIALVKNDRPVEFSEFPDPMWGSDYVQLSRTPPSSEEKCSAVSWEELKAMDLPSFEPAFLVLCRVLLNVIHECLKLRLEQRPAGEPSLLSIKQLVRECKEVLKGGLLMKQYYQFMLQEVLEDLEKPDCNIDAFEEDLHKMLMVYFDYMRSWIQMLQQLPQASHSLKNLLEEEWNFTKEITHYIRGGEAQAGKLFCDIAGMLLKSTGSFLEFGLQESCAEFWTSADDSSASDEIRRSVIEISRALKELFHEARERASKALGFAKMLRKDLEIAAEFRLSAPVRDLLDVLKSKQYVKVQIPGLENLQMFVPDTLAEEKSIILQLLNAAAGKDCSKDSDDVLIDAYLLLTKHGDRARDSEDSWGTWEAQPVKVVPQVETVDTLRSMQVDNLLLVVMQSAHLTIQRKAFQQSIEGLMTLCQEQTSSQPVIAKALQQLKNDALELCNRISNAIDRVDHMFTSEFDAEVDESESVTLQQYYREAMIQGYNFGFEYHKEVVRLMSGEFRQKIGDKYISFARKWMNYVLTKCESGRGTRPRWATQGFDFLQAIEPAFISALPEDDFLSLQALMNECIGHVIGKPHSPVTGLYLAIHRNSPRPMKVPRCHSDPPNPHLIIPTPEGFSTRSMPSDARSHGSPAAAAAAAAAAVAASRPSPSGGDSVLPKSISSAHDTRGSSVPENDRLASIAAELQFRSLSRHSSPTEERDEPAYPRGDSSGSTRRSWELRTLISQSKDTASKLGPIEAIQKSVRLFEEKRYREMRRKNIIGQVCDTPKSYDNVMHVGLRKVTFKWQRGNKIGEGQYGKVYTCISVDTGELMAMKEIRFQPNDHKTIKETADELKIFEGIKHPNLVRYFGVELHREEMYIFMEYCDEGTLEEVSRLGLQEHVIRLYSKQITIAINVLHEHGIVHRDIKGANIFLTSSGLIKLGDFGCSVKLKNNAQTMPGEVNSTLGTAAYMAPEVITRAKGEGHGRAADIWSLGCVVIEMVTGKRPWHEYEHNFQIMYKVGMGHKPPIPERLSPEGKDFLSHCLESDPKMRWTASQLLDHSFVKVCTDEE
# Casein kinase I isoform gamma-3 (Homo sapiens), sequence (Q9Y6M4 whole entry, looked up, canonical isoform): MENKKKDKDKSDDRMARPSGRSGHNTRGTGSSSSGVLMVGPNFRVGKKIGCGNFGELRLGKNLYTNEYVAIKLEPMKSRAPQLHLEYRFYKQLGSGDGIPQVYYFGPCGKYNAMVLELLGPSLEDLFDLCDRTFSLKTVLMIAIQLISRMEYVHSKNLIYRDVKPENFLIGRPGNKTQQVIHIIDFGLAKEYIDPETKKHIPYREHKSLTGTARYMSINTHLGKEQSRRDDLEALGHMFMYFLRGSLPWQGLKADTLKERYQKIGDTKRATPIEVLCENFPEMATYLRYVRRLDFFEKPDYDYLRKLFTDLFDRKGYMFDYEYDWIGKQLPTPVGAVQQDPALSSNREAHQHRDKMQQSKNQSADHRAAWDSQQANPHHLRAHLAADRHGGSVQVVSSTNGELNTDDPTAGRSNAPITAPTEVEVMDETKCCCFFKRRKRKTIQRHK
# Casein kinase I isoform epsilon (Homo sapiens), sequence (P49674 whole entry, looked up, canonical isoform): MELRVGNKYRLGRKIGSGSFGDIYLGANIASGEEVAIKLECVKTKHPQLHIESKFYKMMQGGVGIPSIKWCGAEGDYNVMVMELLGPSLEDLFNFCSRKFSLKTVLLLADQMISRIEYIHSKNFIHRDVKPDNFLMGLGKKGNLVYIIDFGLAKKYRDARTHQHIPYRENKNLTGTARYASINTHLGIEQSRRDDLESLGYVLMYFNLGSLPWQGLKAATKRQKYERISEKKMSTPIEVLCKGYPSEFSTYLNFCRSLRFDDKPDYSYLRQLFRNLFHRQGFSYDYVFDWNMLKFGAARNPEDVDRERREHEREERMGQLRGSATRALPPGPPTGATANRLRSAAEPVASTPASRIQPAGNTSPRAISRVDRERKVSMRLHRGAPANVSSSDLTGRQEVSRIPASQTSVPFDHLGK
# Cyclin-dependent kinase 19 (Homo sapiens), sequence (Q9BWU1 whole entry): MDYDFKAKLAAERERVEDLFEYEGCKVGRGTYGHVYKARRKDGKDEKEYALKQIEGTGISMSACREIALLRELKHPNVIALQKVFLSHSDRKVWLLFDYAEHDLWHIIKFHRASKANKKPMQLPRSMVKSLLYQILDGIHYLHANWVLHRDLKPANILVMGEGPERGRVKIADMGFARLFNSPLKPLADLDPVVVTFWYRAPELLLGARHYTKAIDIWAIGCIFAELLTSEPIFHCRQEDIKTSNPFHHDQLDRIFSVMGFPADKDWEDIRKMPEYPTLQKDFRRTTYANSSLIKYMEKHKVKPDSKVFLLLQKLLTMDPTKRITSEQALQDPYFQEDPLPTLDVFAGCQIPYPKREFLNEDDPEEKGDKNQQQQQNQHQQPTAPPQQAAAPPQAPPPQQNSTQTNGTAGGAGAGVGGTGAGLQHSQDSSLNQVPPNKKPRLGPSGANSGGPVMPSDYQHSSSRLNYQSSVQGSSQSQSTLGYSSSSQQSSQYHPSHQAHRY
# Serine/threonine-protein kinase SIK2 (Homo sapiens), sequence (Q9H0K1 whole entry, looked up): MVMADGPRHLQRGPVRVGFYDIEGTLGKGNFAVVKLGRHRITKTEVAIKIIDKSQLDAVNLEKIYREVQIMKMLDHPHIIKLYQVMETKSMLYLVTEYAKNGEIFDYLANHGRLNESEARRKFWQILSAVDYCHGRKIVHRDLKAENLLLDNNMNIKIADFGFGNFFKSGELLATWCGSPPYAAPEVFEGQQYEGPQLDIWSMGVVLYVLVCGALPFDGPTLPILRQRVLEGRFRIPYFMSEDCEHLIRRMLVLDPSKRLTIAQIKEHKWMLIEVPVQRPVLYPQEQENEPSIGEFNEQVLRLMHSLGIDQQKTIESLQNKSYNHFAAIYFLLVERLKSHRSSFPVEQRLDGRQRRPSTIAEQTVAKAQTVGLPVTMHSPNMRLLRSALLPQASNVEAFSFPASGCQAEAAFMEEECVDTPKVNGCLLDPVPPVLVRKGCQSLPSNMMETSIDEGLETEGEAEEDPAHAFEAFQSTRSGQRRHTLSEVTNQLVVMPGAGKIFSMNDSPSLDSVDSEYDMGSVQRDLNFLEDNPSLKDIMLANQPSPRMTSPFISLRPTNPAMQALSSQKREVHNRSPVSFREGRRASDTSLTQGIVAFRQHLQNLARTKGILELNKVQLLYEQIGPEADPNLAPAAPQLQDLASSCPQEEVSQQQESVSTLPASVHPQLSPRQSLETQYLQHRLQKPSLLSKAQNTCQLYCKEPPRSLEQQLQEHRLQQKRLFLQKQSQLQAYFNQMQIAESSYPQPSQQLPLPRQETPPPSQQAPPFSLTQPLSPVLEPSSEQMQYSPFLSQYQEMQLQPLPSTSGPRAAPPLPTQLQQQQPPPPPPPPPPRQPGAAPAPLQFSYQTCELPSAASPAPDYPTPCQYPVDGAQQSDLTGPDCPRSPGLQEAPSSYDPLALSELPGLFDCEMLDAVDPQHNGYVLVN
# Myotonin-protein kinase (Homo sapiens), sequence (Q09013 whole entry): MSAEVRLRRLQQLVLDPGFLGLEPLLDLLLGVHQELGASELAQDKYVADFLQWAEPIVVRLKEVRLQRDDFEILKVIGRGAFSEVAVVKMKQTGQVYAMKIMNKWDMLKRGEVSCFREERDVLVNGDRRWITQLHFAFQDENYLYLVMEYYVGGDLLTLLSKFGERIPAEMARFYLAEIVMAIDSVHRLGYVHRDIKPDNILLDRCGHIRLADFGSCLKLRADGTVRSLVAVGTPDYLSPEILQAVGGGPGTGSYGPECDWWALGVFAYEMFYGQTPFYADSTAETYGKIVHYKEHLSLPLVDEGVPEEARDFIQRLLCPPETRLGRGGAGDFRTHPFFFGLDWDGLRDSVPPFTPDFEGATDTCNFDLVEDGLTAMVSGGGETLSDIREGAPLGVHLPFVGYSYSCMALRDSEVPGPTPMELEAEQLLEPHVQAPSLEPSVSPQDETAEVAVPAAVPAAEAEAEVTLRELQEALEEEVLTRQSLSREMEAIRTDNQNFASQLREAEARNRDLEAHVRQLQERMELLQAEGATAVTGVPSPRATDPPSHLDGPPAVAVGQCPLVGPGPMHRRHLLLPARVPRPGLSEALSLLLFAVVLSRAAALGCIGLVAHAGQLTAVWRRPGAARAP
# Mitogen-activated protein kinase 11 (Homo sapiens), sequence (Q15759 whole entry): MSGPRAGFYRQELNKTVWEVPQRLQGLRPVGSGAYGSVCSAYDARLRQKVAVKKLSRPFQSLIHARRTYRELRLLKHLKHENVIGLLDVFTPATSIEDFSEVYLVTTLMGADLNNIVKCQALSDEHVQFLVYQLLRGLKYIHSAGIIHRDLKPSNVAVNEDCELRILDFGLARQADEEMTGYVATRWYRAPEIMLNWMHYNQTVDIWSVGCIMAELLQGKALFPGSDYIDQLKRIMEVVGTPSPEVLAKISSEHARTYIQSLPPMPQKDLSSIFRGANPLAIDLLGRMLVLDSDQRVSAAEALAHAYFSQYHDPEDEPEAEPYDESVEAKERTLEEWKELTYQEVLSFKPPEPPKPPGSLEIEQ
smiles,measurement,setting,value
O=C(NC[C@@H]1[C@H]2CN(C(=O)OCc3cc(C(F)(F)F)cc(C(F)(F)F)c3)C[C@@H]12)c1ccc2[nH]nnc2c1 [BI 2545],residual activity,[1],88%
same,residual activity,[2],78%
same,residual activity,[3],100%
same,residual activity,[4],98%
same,residual activity,[5],96%
same,residual activity,[6],89%
same,residual activity,[7],78%
same,residual activity,[8],100%
same,residual activity,[9],100%
same,residual activity,[10],89%
same,residual activity,[11],92%
same,residual activity,[12],83%
same,residual activity,[13],94%
same,residual activity,[14],95%
same,residual activity,[15],80%
same,residual activity,[16],100%
same,residual activity,[17],79%
same,residual activity,[18],92%
same,residual activity,[19],100%
same,residual activity,[20],91%
same,residual activity,[21],100%
same,residual activity,[22],100%
same,residual activity,[23],91%
same,residual activity,[24],100%
same,residual activity,[25],89%
same,residual activity,[26],100%
same,residual activity,[27],100%
same,residual activity,[28],100%
same,residual activity,[29],100%
same,residual activity,[30],96%
same,residual activity,[31],100%
same,residual activity,[32],100%
same,residual activity,[33],100%
same,residual activity,[34],100%
same,residual activity,[35],85%
same,residual activity,[36],100%
same,residual activity,[37],100%
same,residual activity,[38],98%
same,residual activity,[39],94%
same,residual activity,[40],99%
same,residual activity,[41],100%
same,inhibition,[42],12.8%
same,inhibition,[43],-4.02%
same,inhibition,[44],63.7%
Cc1nccc(COC(=O)N2C[C@@H]3[C@@H](CNC(=O)c4ccc5[nH]nnc5c4)[C@@H]3C2)n1 [BI 3017],residual activity,[1],90%
same,residual activity,[2],100%
same,residual activity,[3],85%
same,residual activity,[4],84%
same,residual activity,[5],100%
same,residual activity,[6],97%
same,residual activity,[7],90%
same,residual activity,[8],100%
same,residual activity,[9],96%
same,residual activity,[10],100%
same,residual activity,[11],85%
same,residual activity,[12],100%
same,residual activity,[13],98%
same,residual activity,[14],79%
same,residual activity,[15],100%
same,residual activity,[16],100%
same,residual activity,[17],92%
same,residual activity,[18],97%
same,residual activity,[19],100%
same,residual activity,[20],93%
same,residual activity,[21],87%
same,residual activity,[22],99%
same,residual activity,[23],94%
same,residual activity,[24],72%
same,residual activity,[25],97%
same,residual activity,[26],100%
same,residual activity,[27],89%
same,residual activity,[28],88%
same,residual activity,[29],94%
same,residual activity,[30],100%
same,residual activity,[31],100%
same,residual activity,[32],91%
same,residual activity,[33],100%
same,residual activity,[34],100%
same,residual activity,[35],71%
same,residual activity,[36],92%
same,residual activity,[37],100%
same,residual activity,[38],100%
same,residual activity,[39],66%
same,residual activity,[40],100%
same,residual activity,[41],100%
same,inhibition,[42],18.1%
same,inhibition,[43],14.2%
same,inhibition,[44],-4.4%
